Experimental data published in US5750540A, “1,4-di-substituted piperidine derivatives” (Banyu Pharmaceutical Co., Ltd., priority 1995, dated 1998).

Legend:
[1] = molecular target: T1, muscarinic M2 receptors (Rattus norvegicus, UniProt P10980); experiment: Inhibition of binding to muscarinic M2 receptors ([3H]-N-methylscopolamine, heart membrane); conditions: 0.2 nM [3H]-N-methylscopolamine
T1 construct: a membrane specimen from the heart was used as the membrane specimen; from tissue; host or cells: rat heart membranes (SD rat)
T1 sequence (P10980 1-466): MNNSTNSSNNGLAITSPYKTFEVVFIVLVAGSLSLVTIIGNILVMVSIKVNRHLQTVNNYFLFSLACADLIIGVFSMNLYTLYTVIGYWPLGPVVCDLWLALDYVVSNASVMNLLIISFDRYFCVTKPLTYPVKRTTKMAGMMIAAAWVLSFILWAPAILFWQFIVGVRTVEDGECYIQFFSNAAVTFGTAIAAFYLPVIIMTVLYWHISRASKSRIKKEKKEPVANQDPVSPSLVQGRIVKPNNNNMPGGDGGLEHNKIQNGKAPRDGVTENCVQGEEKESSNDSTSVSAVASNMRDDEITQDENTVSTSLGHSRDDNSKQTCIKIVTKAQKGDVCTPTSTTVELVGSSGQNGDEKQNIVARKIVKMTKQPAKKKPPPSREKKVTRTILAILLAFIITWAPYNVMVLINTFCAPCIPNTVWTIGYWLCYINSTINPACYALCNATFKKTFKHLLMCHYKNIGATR
Description: The compounds of formula [I] in accordance with the present invention have a potent and selective inhibitory effect on binding to muscarinic receptors, as well as a potent and selective antagonistic effect on muscarinic receptors both in vitro and in vivo. […] In these tests, their inhibitory and antagonistic effects were expressed in terms of the dissociation constant (Ki) of each test compound which was calculated from its concentration (IC50 ) causing a 50% inhibition of the binding of a labeled ligand to muscarinic receptors. As the labeled ligand, [^3 H]-telenzepine was used for the muscarinic M1 receptors and [^3 H]-N-methylscopolamine for the muscarinic M2 and M3 receptors.
(§1) A male SD strain rat (purchased from Nippon Charles River Co., Ltd.), weighing about 250-350 g, was sacrificed, and the cerebral cortex, heart and lacrimal glands were excised. Using a Polytron (setting 5), each organ was homogenized in 5 volumes of an ice-cold buffer solution (pH 7.4) containing 50 mM tris-HCl, 5 mM magnesium chloride, 1 mM trisodium ethylenediaminetetraacetate and 20% sucrose. The resulting homogenate was centrifuged at 3,000×g at 4° C. for 15 minutes, and the supernatant was filtered through gauze and ultracentrifuged at 100,000×g at 4° C. for 45 minutes. The resulting precipitate was suspended in an ice-cold buffer solution (pH 7.4) containing 50 mM tris-HCl and 5 mM magnesium chloride (hereinafter referred briefly to as "tris buffer") and ultracentrifuged at 100,000×g at 4° C. for 45 minutes. The resulting precipitate was suspended in tris buffer so as to give a concentration of 50 mg/ml and stored at -80° C. till use. The membrane specimens so prepared were thawed prior to use and submitted to tests for the inhibition of binding to muscarinic receptors.
3) Tests for the inhibition of binding to the muscarinic M2 receptors
The nonspecific binding of [^3 H]-N-methylscopolamine to receptors was determined by the addition of 1 mM N-methylscopolamine.

[2] = molecular target: T2, muscarinic M1 receptors (Rattus norvegicus, UniProt P08482); experiment: Inhibition of binding to muscarinic M1 receptors ([3H]-telenzepine, cerebral cortex membrane)
T2 construct: a mixture of a membrane specimen from the cerebral cortex; from tissue; host or cells: rat cerebral cortex membranes (SD rat)
T2 sequence (P08482 1-460): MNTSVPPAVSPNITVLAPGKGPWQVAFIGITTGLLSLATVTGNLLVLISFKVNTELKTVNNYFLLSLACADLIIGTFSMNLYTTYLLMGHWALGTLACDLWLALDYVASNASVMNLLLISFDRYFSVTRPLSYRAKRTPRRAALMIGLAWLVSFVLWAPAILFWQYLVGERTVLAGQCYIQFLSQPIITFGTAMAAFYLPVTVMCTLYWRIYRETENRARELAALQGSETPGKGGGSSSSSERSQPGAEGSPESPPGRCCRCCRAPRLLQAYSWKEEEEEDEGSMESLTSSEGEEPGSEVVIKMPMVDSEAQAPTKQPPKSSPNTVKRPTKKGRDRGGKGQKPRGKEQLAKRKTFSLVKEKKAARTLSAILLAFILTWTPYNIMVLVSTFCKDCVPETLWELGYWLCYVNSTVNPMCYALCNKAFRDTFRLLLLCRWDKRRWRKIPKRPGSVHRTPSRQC
Description: In these tests, their inhibitory and antagonistic effects were expressed in terms of the dissociation constant (Ki) of each test compound which was calculated from its concentration (IC50 ) causing a 50% inhibition of the binding of a labeled ligand to muscarinic receptors. As the labeled ligand, [^3 H]-telenzepine was used for the muscarinic M1 receptors and [^3 H]-N-methylscopolamine for the muscarinic M2 and M3 receptors.
as §1
2) Tests for the inhibition of binding to the muscarinic M1 receptors
These tests were performed according to a modification of the method of Hargreaves et al. [Br. J. Pharmacol., Vol. 107, pp. 494-501 (1992)]. Specifically, a mixture of a membrane specimen from the cerebral cortex, 1 nM [^3 H]-telenzepine (85 Ci/mmol; manufactured by New England Nuclear) and a test compound in 0.5 ml of tris buffer was incubated at room temperature (about 20°-25° C.) for 120 minutes. After the addition of 0.5 ml of ice-cold tris buffer, the mixture was filtered by suction through a glass filter (Packard Unifilter Plate GF/C). Then, the filter was washed four times with 1 ml portions of ice-cold tris buffer and dried at 50° C. for an hour. After the addition of a scintillator (Packard Microscinti 0), the radioactivity of [^3 H]-telenzepine adsorbed to the filter was measured with a microplate scintillation counter (Packard Topcount). The nonspecific binding of [^3 H]-telenzepine to receptors was determined by the addition of […] pirenzepine. According to the method of Cheng and Prusoff [Biochem. Pharmacol., Vol. 22, pp. 3099-3108 (1973)], the affinity of the test compound (i.e., a compound in accordance with the present invention) for the muscarinic M1 receptors was determined in terms of its dissociation constant (Ki) calculated from the concentration (IC50) of the test compound which was required to cause a 50% inhibition of the binding of [^3 H]-telenzepine used as the labeled ligand.

CC(C)=CCCN1CCC(NC(=O)C(O)(c2ccccc2)C2CCC2)CC1 (centres unmarked) [Example 1, N-[1-(4-methyl-3-pentenyl)-piperidin-4-yl]-2-cyclobutyl-2-hydroxy-2-phenylacetamide]
Ki [1]: 860 nM
Ki [2]: 45 nM
